Assay results: ChEMBL document CHEMBL1201862, “PubChem BioAssay data set” (2004)
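Exposure lasted 48 hours, with cells grown in 96-well plates and compounds tested at five concentrations. Abbreviation: GI50, concentration required for 50% inhibition of growth.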 The source made the active and inactive calls. Rule as the data show it: active = GI50 up to about 1.1 µM and inactive = higher.

What was measured:
Assay in all cases: growth of human tumour cells (NCI), 48 h
[1] = system: SF-539
[2] = system: NCI-H522
[3] = system: SNB-19
[4] = system: CAKI-1
[5] = system: MOLT-4
[6] = system: HT-29
[7] = system: SW-620
[8] = system: U-251
[9] = system: PC-3
[10] = system: NCI/ADR-RES
[11] = system: UACC-62
[12] = system: NCI-H23
[13] = system: HCT-15
[14] = system: UO-31
[15] = system: Malme-3M
[16] = system: NCI-H460
[17] = system: HCT-116
[18] = system: EKVX
[19] = system: SF-295
[20] = system: UACC-257
[21] = system: TK-10
[22] = system: IGROV-1
[23] = system: MCF7
[24] = system: OVCAR-8
[25] = system: RPMI-8226
[26] = system: M14
[27] = system: A549
[28] = system: BT-549
[29] = system: HCC 2998
[30] = system: 786-0
[31] = system: CCRF-CEM
[32] = system: RXF 393
[33] = system: SF-268
[34] = system: SNB-75
[35] = system: ACHN
[36] = system: HOP-62
[37] = system: OVCAR-5
[38] = system: K562
[39] = system: SK-MEL-28
[40] = system: KM12
[41] = system: SK-MEL-5
[42] = system: COLO 205
[43] = system: DU-145
[44] = system: OVCAR-4
[45] = system: SR
[46] = system: MDA-N
[47] = system: HL-60
[48] = system: NCI-H226
[49] = system: SK-OV-3
[50] = system: SN12C
[51] = system: SK-MEL-2
[52] = system: OVCAR-3
[53] = system: MDA-MB-435
[54] = system: MDA-MB-231
[55] = system: HOP-92
[56] = system: T47D
[57] = system: LOX IMVI

With `CC(=O)CC(=O)c1cc2c(=O)oc(C)cc2oc1=O` the GI50 [1] was > 37.5 µM (inactive), the GI50 [2] was > 37.5 µM (inactive) and the GI50 [3] was > 37.5 µM (inactive). The GI50 [4] was > 37.5 µM (inactive), the GI50 [5] was > 37.5 µM (inactive) and the GI50 [6] was > 37.5 µM (inactive). For the same compound, the GI50 [7] was > 37.5 µM (inactive), the GI50 [8] was > 37.5 µM (inactive) and the GI50 [9] was > 37.5 µM (inactive). The GI50 [10] was > 37.5 µM (inactive), the GI50 [11] was > 37.5 µM (inactive) and the GI50 [12] was > 37.5 µM (inactive). For the same compound, the GI50 [13] was > 37.5 µM, the GI50 [14] was > 37.5 µM (inactive) and the GI50 [15] was > 37.5 µM (inactive). The GI50 [16] was > 37.5 µM (inactive), the GI50 [17] was > 37.5 µM (inactive) and the GI50 [18] was > 37.5 µM (inactive). For the same compound, the GI50 [19] was > 37.5 µM (inactive), the GI50 [20] was > 37.5 µM (inactive) and the GI50 [21] was > 37.5 µM (inactive). For the same compound, the GI50 [22] was > 37.5 µM (inactive), the GI50 [23] was > 37.5 µM (inactive) and the GI50 [24] was > 37.5 µM (inactive). The GI50 [25] was > 37.5 µM (inactive), the GI50 [26] was > 37.5 µM (inactive) and the GI50 [27] was > 37.5 µM (inactive). The GI50 [28] was > 37.5 µM (inactive), the GI50 [29] was > 37.5 µM (inactive) and the GI50 [30] was > 37.5 µM (inactive). For the same compound, the GI50 [31] was > 37.5 µM (inactive), the GI50 [32] was > 37.5 µM (inactive) and the GI50 [33] was > 37.5 µM (inactive). For the same compound, the GI50 [34] was 2.75 µM (inactive), the GI50 [35] was > 37.5 µM (inactive) and the GI50 [36] was > 37.5 µM (inactive). For the same compound, the GI50 [37] was > 37.5 µM (inactive), the GI50 [38] was > 37.5 µM (inactive) and the GI50 [39] was > 37.5 µM (inactive). The GI50 [40] was > 37.5 µM (inactive), the GI50 [41] was > 37.5 µM (inactive) and the GI50 [42] was > 37.5 µM (inactive). The GI50 [43] was > 37.5 µM (inactive), the GI50 [44] was > 37.5 µM (inactive) and the GI50 [45] was > 37.5 µM (inactive). The GI50 [46] was > 37.5 µM (inactive), the GI50 [47] was > 37.5 µM (inactive) and the GI50 [48] was > 37.5 µM (inactive). The GI50 [49] was > 37.5 µM (inactive), the GI50 [50] was > 37.5 µM (inactive) and the GI50 [51] was > 37.5 µM (inactive). For the same compound, the GI50 [52] was > 37.5 µM (inactive).

`Cc1ccc(S(=O)(=O)N2c3ccccc3[C@H]3CCc4c([nH]c5ccccc45)[C@H]32)cc1` was tested, and the GI50 [1] was 27.7 µM (inactive), the GI50 [3] was > 100 µM (inactive) and the GI50 [4] was 4.33 µM (inactive). For the same compound, the GI50 [5] was 66.1 µM (inactive), the GI50 [6] was > 100 µM (inactive) and the GI50 [7] was > 100 µM (inactive). The GI50 [53] was 48.3 µM (inactive), the GI50 [8] was > 100 µM (inactive) and the GI50 [9] was > 100 µM (inactive). The GI50 [10] was > 100 µM (inactive), the GI50 [54] was 0.65 µM (active) and the GI50 [11] was > 100 µM (inactive). For the same compound, the GI50 [12] was > 100 µM (inactive), the GI50 [14] was > 100 µM (inactive) and the GI50 [16] was > 100 µM (inactive). The GI50 [17] was > 100 µM (inactive), the GI50 [18] was > 100 µM (inactive) and the GI50 [19] was > 100 µM (inactive). For the same compound, the GI50 [20] was > 100 µM (inactive), the GI50 [21] was > 100 µM (inactive) and the GI50 [22] was 0.789 µM (active). For the same compound, the GI50 [23] was > 100 µM (inactive), the GI50 [55] was > 100 µM (inactive) and the GI50 [24] was > 100 µM (inactive). For the same compound, the GI50 [25] was 29.2 µM (inactive), the GI50 [26] was > 100 µM (inactive) and the GI50 [27] was > 100 µM (inactive). For the same compound, the GI50 [28] was > 100 µM (inactive), the GI50 [29] was > 100 µM (inactive) and the GI50 [31] was 70 µM (inactive). The GI50 [32] was > 100 µM (inactive), the GI50 [33] was > 100 µM (inactive) and the GI50 [34] was > 100 µM (inactive). For the same compound, the GI50 [35] was > 100 µM (inactive), the GI50 [36] was 84.9 µM (inactive) and the GI50 [37] was > 100 µM (inactive). The GI50 [38] was 23.4 µM (inactive), the GI50 [39] was > 100 µM (inactive) and the GI50 [40] was 17.9 µM (inactive). For the same compound, the GI50 [41] was 32 µM (inactive), the GI50 [56] was > 100 µM (inactive) and the GI50 [42] was > 100 µM (inactive). The GI50 [43] was > 100 µM (inactive), the GI50 [57] was > 100 µM (inactive) and the GI50 [44] was 0.942 µM (active). For the same compound, the GI50 [46] was 30 µM (inactive), the GI50 [48] was 15.3 µM (inactive) and the GI50 [49] was > 100 µM (inactive). The GI50 [50] was > 100 µM (inactive), the GI50 [51] was > 100 µM (inactive) and the GI50 [52] was > 100 µM (inactive).
